The text below walks through data of US20250345458A1, “COMPLEXING AGENT SALT FORMULATIONS OF PHARMACEUTICAL COMPOUNDS AT LOW STOICHIOMETRIC RATIOS” (Bexson Biomedical, Inc., priority 2022, published 2025).

Data set [1] can be described thus: pH of API formulations (pH meter). In kind it is physicochemical. Particulars: for final pH: after 2M NaOH.
Data set [2] is described as follows: Osmolality of API formulations (micro osmometer, triplicate). The class given is physicochemical. As for the experimental part:
Osmolality readings were obtained on an Advanced Instruments Advanced™ Micro Osmometer Model 3300 (Advanced Instruments, Inc. Norwood, MA, USA). Saline solutions (0.9% and 3%) were run as positive controls. Each sample was calculated as the mean from back-to-back triplicate measurements. When replicate batches were measured, data was reported as mean±SEM.
The procedure was performed on a 2 mL scale. […] Benzethonium chloride (20 μL of a 1% solution, 0.01% final concentration) was added via micropipette. The pH was adjusted to ˜7.00 with 2M sodium hydroxide, or either 1M or 2M HCl in some cases, and then the mixture was transferred to a 2 mL volumetric flask to be diluted with HPLC grade water. […]
Method 1: In a 5 mL borosilicate glass test tube which contained a Teflon-coated magnetic stir bar, Captisol®-Na+ ([…], H+ equivalents, moisture corrected) was dissolved in HPLC grade water (1.6-1.7 mL), API salt (HCl in most cases) (70 mg/mL FB equivalents) was added and the mixture was stirred until a homogenous transparent solution formed. Benzethonium chloride (20 μL of a 1% solution, giving a 0.01% final concentration) was added via micropipette. The pH was adjusted to ˜7.00 with 1M or 2M sodium hydroxide, or either 1M or 2M HCl in some cases, and then the mixture was transferred to a 2 mL volumetric flask to be diluted with HPLC grade water. […]
Benzethonium chloride (20 μL of a 1% solution, giving a 0.01% final concentration) was added via micropipette. The pH was adjusted to ˜7.00 with 1M or 2M sodium hydroxide, or either 1M or 2M HCl in some cases, and then the mixture transferred to a 2 mL volumetric flask to be diluted with HPLC grade water. […]
The solution was transferred to a 2 mL volumetric flask and diluted to the target volume with HPLC grade water. […]

The conditions of data set [3]: in water, cited from earlier work; for Reported Freebase Solubility: vendor or literature value.
Data set [4] in a line: API-CapAcid salts prepared in ethanol, then 70 mg of solid added to 1 mL water (visual). In kind it is physicochemical. Conditions: for pH of the ethanol solution prior to titration: API FB 100 mg + CapAcid 1 molar equivalent (H^+) in 10 mL 200 proof ethanol; for dissolution of 70 mg of the ethanol-prepared API-CapAcid solid in 1 mL water: visual, vortexed.
Method: The resulting solid API-CapAcid salts were then obtained as solids by evaporation of the ethanol, followed by lyophilization.
In a scintillation vial, a solution of API FB (100 mg) and CapAcid (1 molar equivalent, moisture corrected) was prepared by dissolving Cap Acid in 200 proof ethanol (5 mL) and then adding the freebase API. […] Whether or not the freebase dissolved after the second addition of ethanol, the initial pH, prior to titration, was recorded. The vial was then wrapped in foil and left uncovered in the hood to allow the ethanol to evaporate. After the ethanol fully evaporated, a small amount of HPLC grade water (3-5 mL) was added to each to see if the product would dissolve or become a suspension in the water. The solution was then lyophilized to remove the water. The product was ground with a stir rod and 70±0.1 mg was added to 1 mL of water to see if it would dissolve.
A short description of data set [5]: Dissolution of API freebase in aqueous CapAcid / Captisol solutions at defined API:CapAcid ratios, visual inspection and NaOH titration. Conditions: for concentration (FB equivalents) at which the freebase dissolved: water.
Data set [6] can be described thus: Visual dissolution / precipitation of API free base-CapAcid formulations at stated API:CapAcid ratios. The class given is physicochemical.
Where [7] appears, read: 70 mg/mL API FB, 1.1 equivalents CapAcid, before NaOH/HCl.
[8] abbreviates: 70 mg/mL API salt (FB equivalent), 1.1 equivalents Captisol®-Na^+, before NaOH.
The mark [9] stands for this setting: API Salt (70 mg/mL API Salt in FB equivalent) in water.
Where [10] appears, read: CapAcid-API Freebase Formulation (70 mg/mL API FB, 1.1 molar equivalent CapAcid), final pH after titration and dilution.
Where [11] appears, read: Captisol®-Na^+ formulation, 70 mg/mL API Salt in FB equivalent, 1.1 molar equivalent Captisol®-Na^+, final pH.
Setting [12] is: API FB CapAcid formulation, 70 mg/mL API FB, 1.1 equivalents CapAcid (H^+ equivalents), after titration.
Setting [13] is: API salt Captisol®-Na^+ formulation, 70 mg/mL FB equivalent, 1.1 equivalents Captisol®-Na^+.
Where [14] appears, read: CapAcid-API Freebase Formulation (70 mg/mL API FB, 1.1 molar equivalent CapAcid), after pH titration with NaOH or HCl.
[15] abbreviates: Captisol®-Na^+ formulation, 70 mg/mL API Salt in FB equivalent, 1.1 molar equivalent Captisol®-Na^+.
Setting [16] is: API salt 70 mg/mL (FB equivalents) in water.
Setting [17] is: 1:1 ratio of API to CapAcid (relative to the cyclodextrin).

Structures are written as SMILES. Marks after values point to notes of the source that are not given here. Bounds are passed on as bounds.

`NC12CC3CC(CC(C3)C1)C2` [1-Amantadine]: the “pH of the solution prior to titration” value in data set [1] (setting [7]) was 1.43; in data set [1] (setting [8]), 3.93. The results for the pH in data set [1] (setting [9]), in data set [1] (setting [10]) and in data set [1] (setting [11]) were 5.67, 6.97 and 6.99, respectively. Further, the Osmolality is recorded as 411.6 mOsmol/kg in data set [2] (setting [12]); 832 mOsm/kg in data set [2] (setting [9]); 1,446.7 mOsmol/kg in data set [2] (setting [13]); 411.6 mOsm/kg in data set [2] (setting [14]); 1,446.7 mOsm/kg in data set [2] (setting [15]).

For `NC1C2CC3CC(C2)CC1C3` (stereo not shown) [2-Amantadine], the “pH of the solution prior to titration” value in data set [1] (setting [7]) is recorded as 1.29; in data set [1] (setting [8]), 5.63. Moreover, the pH in data set [1] (setting [9]) came to 6.94; in data set [1] (setting [10]) it was 7.06; in data set [1] (setting [11]) it was 7.01. In addition, the Osmolality in data set [2] (setting [12]) is listed as 435.7 mOsmol/kg; in data set [2] (setting [9]), 826.7 mOsm/kg; in data set [2] (setting [13]), 1,492.7 mOsmol/kg; in data set [2] (setting [14]), 435.7 mOsm/kg; in data set [2] (setting [15]) it was 1492.7 mOsm/kg.

As for `Nc1ccncc1N` [Amifampridine, Pyridine-3,4-diamine], the “pH of the solution prior to titration” value in data set [1] (70 mg/mL API FB, 1 equivalent 6M HCl, 1.1 equivalents Captisol®-Na^+, before NaOH/HCl) stood at 9.27; in data set [1] (setting [7]), 9.19. Moreover, the Osmolality in data set [2] (70 mg/mL API FB and 1 equivalent of 6M HCl in water) is reported as 740.3 mOsmol/kg; in data set [2] (70 mg/mL API FB, 1 equivalent of 6M HCl, 1.1 equivalents Captisol®-Na^+), 1023.3 mOsmol/kg; in data set [2] (*70 mg/mL API FB + molar equivalent of 6M HCl in water) it was 740.3*^ mOsm/kg; in data set [2] (setting [12]), 532.7 mOsmol/kg; in data set [2] (setting [14]), 532.7** mOsm/kg; in data set [2] (Captisol®-Na^+ formulation, *70 mg/mL API FB + 6M HCl, 1.1 molar equivalent Captisol®-Na^+), 1,023.3* mOsm/kg. Besides, the “Reported Freebase Solubility” value in data set [3] was 7000 µg/mL.

Consider `COc1ccccc1OCCNCC(O)COc1cccc2[nH]c3ccccc3c12` (stereo not shown) [Carvedilol], for which, in data set [4], the “pH of the ethanol solution prior to titration” value amounted to 0.82 and the “dissolution of 70 mg of the ethanol-prepared API-CapAcid solid in 1 mL water” value (from here on “dissolution of 70 mg … in 1 mL water”) is “insoluble solution”. For the same molecule, in data set [4] (Method 2 solid), the “dissolution of 70 mg … in 1 mL water” value is “insoluble solution”.

`CC[C@H](C)C[C@H](C)CCCCCCCCC(=O)N[C@H]1C[C@@H](O)[C@@H](NCCN)NC(=O)[C@@H]2[C@@H](O)CCN2C(=O)[C@H]([C@H](O)CCN)NC(=O)[C@H]([C@H](O)[C@@H](O)c2ccc(O)cc2)NC(=O)[C@@H]2C[C@@H](O)CN2C(=O)[C@H]([C@@H](C)O)NC1=O` [Caspofungin]: the “pH of the solution prior to titration” value is listed as 7.78 in data set [1] (setting [7]) and 6.13 in data set [1] (setting [8]). Moreover, the pH in data set [1] (setting [9]) amounted to 5.86; in data set [1] (setting [11]), 7.04. For the same molecule, the Osmolality in data set [2] (setting [12]) was 59 mOsmol/kg; in data set [2] (setting [9]) it was 94 mOsm/kg; in data set [2] (setting [16]), 94 mOsmol/kg; in data set [2] (setting [13]), 209.3 mOsmol/kg; in data set [2] (setting [14]), 59** mOsm/kg; in data set [2] (setting [15]), 209.3 mOsm/kg.

In the case of `COc1c(OCCCN2CCOCC2)ccc2c1N=C(NC(=O)c1cnc(N)nc1)N1CCN=C21` [Copanlisib], in data set [1] (1:1 ratio of API to CapAcid), the “pH of the solution before titration” value was found to be 0.76 and the “final pH” value is 6.13. Besides, in data set [1] (2:1 ratio of API to CapAcid), the “pH of the solution before titration” value came out at 2.10. Moreover, the “concentration (FB equivalents) at which the freebase dissolved” value in data set [5] (setting [17]) was 33300 µg/mL. The “dissolution by visual inspection” value in data set [5] (2:1 ratio of API to CapAcid, 100 mg FB in 30 mL water (3 mg/mL)) is reported as “clear with a small amount of undissolved oil”. In addition, the “pH at which precipitation occurred on titration with NaOH” value in data set [5] (2:1 ratio of API to CapAcid, target 3 mg/mL) was 2.20. In data set [4], the “pH of the ethanol solution prior to titration” value was found to be 0.66 and the “dissolution of 70 mg … in 1 mL water” value is “became cloudy with a brown precipitate at the bottom”. Besides, in data set [3], the “Reported Freebase Solubility” value is “Insoluble^19” and the “Reported Salt Solubility” value is 0.023 mg/mL^18.

On to `COc1ccc2c(c1)[C@]13CCCC[C@@H]1[C@H](C2)N(C)CC3` [DXM], for which the “solubility as stoichiometric (6.5:1) CapAcid salt compared with known API salts, in words” value in data set [5] (70 mg/mL formulations) was “dramatic improvement in solubility”.

As to `COC(=O)[C@@H](N)Cc1ccc(O)c(O)c1` [Melevodopa], the “pH of the solution prior to titration” value in data set [1] (setting [7]) turned out to be 1.22. Besides, the pH in data set [1] (setting [10]) was 6.97. Further, the Osmolality in data set [2] (setting [12]) is 605.7 mOsmol/kg; in data set [2] (setting [14]), 605.7 mOsm/kg.

With `Cc1ncc2n1-c1ccc(Cl)cc1C(c1ccccc1F)=NC2` [Midazolam], the “final pH of the solution” value in data set [1] (3:1 ratio, after 0.5 M HCl redissolved the solid) is on record as 2.86. In addition, the “pH when solids began to crash out” value in data set [1] (3:1 ratio, after 360 μL total 2M NaOH) turned out to be 2.92. Also, the “highest achievable pH without precipitation of freebase solids” value in data set [5] (3:1 ratio of API to CapAcid (relative to the cyclodextrin), 300.8 mg FB in 10 mL water) turned out to be 3.15. Also, the “dissolution by visual inspection” value in data set [5] (3:1 ratio of API to CapAcid (relative to the cyclodextrin), 10 mL water) is “transparent colorless solution”; in data set [5] (CapAcid 1 molar equivalent relative to H^+, 300.8 mg FB in 10 mL water, 30 minutes) it was “cloudy suggesting incomplete dissolution”.

With `C=CCN1CC[C@]23c4c5ccc(O)c4O[C@H]2C(=O)CC[C@@]3(O)[C@H]1C5` [Naloxone], the pH is on record as 4.39 in data set [1] (setting [9]), 6.01 in data set [1] (setting [10]) and 5.98 in data set [1] (setting [11]). The “pH past which the freebase crashed out” value in data set [5] (70 mg/mL FB, 1.1 equivalents CapAcid) is recorded as above 6.00. Moreover, the Osmolality in data set [2] (setting [9]) is 279 mOsm/kg; in data set [2] (setting [16]) it was 279 mOsmol/kg; in data set [2] (setting [13]) it was 531.7 mOsmol/kg; in data set [2] (setting [14]), 139.7 mOsm/kg; in data set [2] (setting [15]), 531.7 mOsm/kg. The “Reported Freebase Solubility” value in data set [3] was 1415 µg/mL. Also, the “Reported Salt Solubility” value in data set [3] is on record as 50 mg/mL^13.

As for `CCC(CC)COC(=O)[C@H](C)N[P@](=O)(OC[C@H]1O[C@@](C#N)(c2ccc3c(N)ncnn23)[C@H](O)[C@@H]1O)Oc1ccccc1` [Remdesivir], the “Reported Freebase Solubility” value in data set [3] is listed as “Insoluble^15”.

As for `CN1CCC[C@@H]1Cc1c[nH]c2ccc(CCS(=O)(=O)c3ccccc3)cc12` [eletriptan], the “pH of the solution before titration” value in data set [1] (1:1 ratio of API to CapAcid) is listed as 0.48; in data set [1] (2:1 ratio of API to CapAcid), 1.42; in data set [1] (4:1 ratio of API to CapAcid) it was 2.34. Moreover, the entries for the “final pH” value in data set [1] (1:1 ratio of API to CapAcid), in data set [1] (2:1 ratio of API to CapAcid) and in data set [1] (4:1 ratio of API to CapAcid) were 6.06, 6.08 and 6.01, respectively. Besides, the “concentration (FB equivalents) at which the freebase dissolved” value in data set [5] (setting [17]) is 33300 µg/mL; in data set [5] (2:1 ratio of API to CapAcid (relative to the cyclodextrin)), around 8300 µg/mL. In data set [5] (4:1 ratio of API to CapAcid, 100 mg FB in 30 mL water, stirring for 2 days), the “dissolution by visual inspection” value is “most of the FB dissolved and the solution was cloudy”. In addition, in data set [4], the “pH of the ethanol solution prior to titration” value was 8.02. Moreover, in data set [4], the “dissolution of 70 mg … in 1 mL water” value is given as “became cloudy but a large amount of oil remained at the bottom”. Further, the “solubility compared to higher API:captisol ratio” value in data set [6] (2:1 ratio to captisol compared to 4:1 ratio) was “superior solubility”. Besides, in data set [6] (4:1 ratio to captisol), the “appearance at higher API:captisol ratio” value is “precipitation”. In addition, in data set [3], the “Reported Salt Solubility” value was below 1 mg/mL^16.
